According to publication PMC10583827 (RSC Medicinal Chemistry, 2023):

Key:
[1] = system: L. major strain IR173 promastigotes; experiment: Leishmania antipromastigote assay; type: cell-based; conditions: read-out: Anti-promastigote activity IC50
Vero cells = experiment: General/basal cytotoxicity, resazurin assay; conditions: Vero cells, 48 h, mean ± SD
[2] = system: T. cruzi strain CL trypomastigotes; experiment: T. cruzi antitrypomastigote assay; type: cell-based, Trypanosoma cruzi; conditions: >10 = did not qualify at 10 μM screen

IC50 [1] [nM]	Anti-trypomastigote activity IC50 [2]	Structure (SMILES)	General cytotoxicity Vero IC50 (Vero cells)
30 ± 10	–	C[C@@H]1[C@H](O)[C@@H](C)/C=C/C=C/C=C/C=C/C=C/C=C/C=C/[C@H](O[C@@H]2O[C@H](C)[C@@H](O)[C@H](N)[C@@H]2O)C[C@@H]2O[C@](O)(C[C@@H](O)C[C@@H](O)[C@H](O)CC[C@@H](O)C[C@@H](O)CC(=O)O[C@H]1C)C[C@H](O)[C@H]2C(=O)O [AmB, amphotericin B]	–
–	complete loss	O=[N+]([O-])c1ccc(/C=N/N=C/c2ccco2)cc1 [compound 12, (E)-1-(Furan-2-ylmethylene)-2-[(E)-4-nitrobenzylidene]hydrazine]	complete loss
